Reference: patent US11692011B2, “Hepatitis B virus-derived polypeptide and anti-viral use thereof” (priority 2018, dated 2023)
No end group written: not given here.

How the values were obtained:
HIV-1 [1] = settings: HIV-1-infected MT-4 cells, 5 days, dose-dependent manner
Procedure: In detail, MT-4 cells were prepared at a density of 1×10^4 cells, and incubated with varying concentrations of Poly6 for 5 days. Cytotoxicity was determined using an MTT assay kit (Promega). To analyze the anti-cytotoxic effect of Poly6 from cell death caused by cytotoxicity due to HIV-infection, MT-4 cells (1×10^4 cells) were infected with HIV-1 (1×10^4 CCID50), incubated for five days, and then subjected to cell viability assays. In addition, to determine HIV-1 titers in the supernatant, p24 ELISA was performed. […] Similar to AZT, cytopathic inhibitory effects of Poly6 on HIV-1-infected MT-4 cells were analyzed.

HBV [2] = assay: Anti-HBV effect in HepG2.2.15 or pHBV-1.2x-WT transfected HepG2 cells (HBsAg/HBeAg ELISA, Q-PCR, Southern blot); assay type: cell-based; settings: for e antigen / s antigen: treated for 48 hr
Procedure: In this Experimental Example, HBV polymerase-derived peptides having anti-HBV effects were identified, and cell viability upon treatment thereof was analyzed. […] Then, quantitative PCR and ELISA were performed to examine virion replication and HBV surface antigen (HBsAg).
Chronic HBV infection is known to cause severe liver diseases such as cirrhosis and hepatocellular carcinoma, unlike acute infection. Therefore, it is important to develop anti-HBV drugs that overcome chronic infections. However, since the HBV genome is integrated into the host chromosome, the complete removal of the virus from human liver and serum remains a difficult problem. Therefore, in this Experimental Example, to evaluate the anti-viral effect of Poly6, HepG2.2.15 permanent cell line that continuously expresses HBV was treated with Poly6. Further, HepG2 cells were seeded in a 6-well plate, and then transiently transfected with pHBV-1.2×-WT. […] To measure secreted HBsAg and HBeAg in culture supernatants, HBsAg (BIOKIT) and HBeAg (AccuDiag) ELISA were performed according to experimental methods provided. For detection of 8-hydroxy-2′-deoxyguanosine (8-OHdG) activity, an 8-OHdG assay kit (OxiSelect Oxidative DNA Damage ELISA kit, Cell Biolabs) and ELISA were performed according to the manufacturer's protocol.
To measure extracellular virion secretion, Southern blot analysis was performed. In detail, before ultra-centrifugation at 4° C. and 24,000 rpm for 3 hr, cell debris was removed, and virions were precipitated from the supernatant using 8% PEG6000 (Sigma) on ice for 1 hr. Pellets were harvested with PBS, and HBV DNA was collected using a QIAamp DNA mini kit (QIAGEN) according to the manufacturers instructions. Viral DNA was measured using quantitative real-time PCR (Q-PCR). PCR amplification was performed using a QPCR primer set targeting a small surface gene, which is designed to amplify an a101-bp product (Table 2). Q-PCR was performed using a commercial SensiFAST SYBR Lo-ROX kit (BIOLINE) and an HBV Genesig standard kit (Primer design) to calibrate a viral load. In addition, to detect extracellular HBV DNA, supernatants were collected and HBV particles were precipitated using […] (Sigma) as described above. Virus pellets were collected from PBS and DNA was extracted with a lysis buffer (0.25% SDS, 250 mM Tris-HCl, pH 7.4 and 250 mM EDTA). Purified HBV DNA was separated on a 1% agarose gel, transferred to a nylon membrane (Hybond N+; Amersham) by Southern blotting, and hybridized with a 32P-labeled wild-type, full length HBV DNA probe. Analysis was performed using a random primer DNA labeling kit (TaKaRa). Autoradiography was performed and analyzed using a BAS 2500 image analyzer (Fuji Photo Film).

[3] = test system: mitochondrial reactive oxygen species (mtROS); assay: Mitochondrial reactive oxygen species (MitoSox, flow cytometry) in HepG2 cells; assay type: cell-based, human; settings: for production of reactive oxygen species (mtROS) by mitochondrial stress: HepG2 cells, 2 hr to 24 hr, compared with PBS, rotenone 0.5 μM
Procedure: After culturing the cells for an appropriate time, the cells were incubated with 5 μM of MitoSox (Molecular probes) at 37° C. for 30 min. For flow cytometry, cell pellets were re-suspended in FACS buffer (1% FBS and 1 mM EDTA in PBS) and fixed with 4% paraformaldehyde. To prevent mitochondrial dysfunction, 10 μM of MitoTempo (SigmaAldrich) was pretreated for 12 hr, and 0.5 μM of rotenone (SigmaAldrich) reagent was used as a positive control for ROS induction through mitochondrial stress.

IFN-I = IFN-I related mRNA levels in HepG2-2.15 cells; assay type: cell-based, human; settings: compared with PBS group
Excerpt: IFN-I is induced by host cells to regulate viral infection (Stetson & Medzhitov, 2006). Therefore, to examine the effect of Poly6 on IFN-I production in HepG2-2.15 cells and mouse liver, mRNA levels of IFN-β, RIG-I, and ISG15 were examined.
In addition, to measure IFN levels by indirectly using a luciferase reporter gene for IFN-I bioassay and neutralization analysis, hMH55-293-ISRE cells was used, into which interferon sensitive response element (ISRE) associated with the luciferase reporter gene was inserted at the 3′-end using 5 μg of puromycin (Sigma Aldrich). After collecting supernatants from cells treated with each reagent for 24 hr or 48 hr, the supernatants were added to hMH55-293-ISRE cells for 6 hr. After incubation, cells were washed with PBS, and lysed with a reporter lysis buffer (E1500, Promega) at room temperature for 30 min. A luciferase assay reagent (E1500, Promega) was added and luminescence was measured using a TECAN m200 reader (TECAN).
(§1) Through the combination treatment of entecavir, which is currently used as an HBV anti-viral agent having a mechanism whereby activity of HBV polymerase in the nucleus is inhibited and converted to a phosphorylated form, and Poly6, which was confirmed to increase IFN-I, its anti-HBV effect and synergistic effect of IFN-I increase were examined. HepG2-2.15 cells were incubated at a density of 5×10^5 cells/well on a 6-well culture plate for 24 hr, and treated with PBS, ETV, or Poly6 alone or in combination of two substances. After incubating the cells for 48 hr, supernatants were collected, and subjected to ELISA, qPCR, and LDH assay.
Meanwhile, to examine a synergistic effect of the combination treatment of two substances with respect to the increase level of IFN-I, mRNAs of single treatment groups and combination treatment groups were extracted, and IFN-α, IFN-β, and TNF-α expression levels were observed. […] In addition, IFN levels were indirectly measured using a luciferase reporter gene of hMH55-293-ISRE cell.

HBV [4] = assay: Combination treatment of entecavir and Poly6 in HepG2-2.15 cells (ELISA, qPCR); assay type: cell-based; settings: HepG2-2.15, 48 hr
Procedure: as §1

HIV-1 [5] = settings: 10 μM, 2 days, HIV-1-infected MT-4 cells
Procedure: To evaluate anti-HIV-1 effects of the three polypeptides, cell-based anti-viral effects were analyzed. MT-4 cells (4×10^5 cells) were infected with HIV-1 (4×10^5 CCID50) for 1 hour. The MT-4 cells were obtained from NIH/AIDS Research and Reference Reagent Program. 293FT cells were transfected for 48 hr with HIV-1 using a pBR_HIV-1_M_NL4-3_IRES_eGFP vector (DS441) which co-expresses Nef and enhanced green fluorescence protein (eGFP) from a single bicistronic RNA, and Lipofectamine 2000 reagent (Life Technologies). A supernatant containing a viral precursor HIV-1 was harvested, and the viral titer was determined using p24 ELISA (ABL). For amplification of infectious HIV-1, MT-4 cells were infected with the viral precursor HIV-1 at a multiplicity of infection (MOI) of 0.5 for 72 hr. […]
In this regard, DMSO and AZT were purchased from Sigma-Aldrich. After 2 days of incubation, GFP images were obtained using a fluorescence microscope. The relative GFP intensity was determined using an ImageJ software program (National Institutes of Health) in pixels per area. […] Cell viability against the treated reagents was assessed by an MTT assay.
In detail, MT-4 cells were prepared at a density of 1×10^4 cells, and incubated with varying concentrations of Poly6 for 5 days. Cytotoxicity was determined using an MTT assay kit (Promega). […]

HepG2 cells = assay: Cell viability (MTS assay), HepG2; assay type: cell-based, human; settings: up to 10 μM
Procedure: (§2) In detail, HepG2, HepG2.2.15, and HepG2-hNTCP-C4 cells (expressing NTCP receptors on the cell membrane) were plated in a 96 microplate (1×10^4 cells/well), and incubated for 5 days with increasing concentrations of ETV (30 nM) and Poly6. For an MTS assay, a cell-titer 96 aqueous one solution was directly added to each well, and the plate was incubated for 3 hr. The plate was read at 490 nm, and each analysis was repeated in triplicate.

HepG2.2.15 cells = settings: up to 10 μM
Procedure: as §2

HepG2-hNTCP-C4 cells = settings: up to 10 μM
Procedure: as §2

MT-4 cells = assay: Cytotoxicity assay (MTT) in MT-4 cells; settings: up to 25 μM, 5 days
Procedure: Cell viability against the treated reagents was assessed by an MTT assay.
In detail, MT-4 cells were prepared at a density of 1×10^4 cells, and incubated with varying concentrations of Poly6 for 5 days. Cytotoxicity was determined using an MTT assay kit (Promega).

[6] = compared with PBS (combination vs each single treatment)

## Cc1cn([C@H]2C[C@H](N=[N+]=[N-])[C@@H](CO)O2)c(=O)[nH]c1=O [AZT, 3-azido-3-deoxythymidine]
HIV-1 [1]
  cell protective effect (cytopathic inhibitory effect): significant cell protective effect

## C=C1[C@H](CO)[C@@H](O)C[C@@H]1n1cnc2c(=O)[nH]c(N)nc21 [ETV, entecavir]
HBV [2]; ETV 30 nM, Poly6 10 μM, 2 days
  viral replication levels (viral titers): reduced by ETV, but there was no statistical significance
HBV [2]; compared with PBS
  extracellular virion secretion (Southern blot): clearly decreased
[3]
  production of reactive oxygen species (mtROS) by mitochondrial stress: not observed
IFN-I
  mRNA level of IFN-β: no statistical significance
  mRNA level of ISG15: no statistical significance
  mRNA level of RIG-I: no statistical significance
HBV [4]; compared with PBS (combination also vs single treatment)
  extracellular HBV DNA levels: statistically significantly reduced
HBV [4]; [6]
  level of extracellular e antigen: no significant reduction effect
  level of extracellular s antigen: no significant reduction effect

## CC1(C)CC(NC(=O)C[P+](c2ccccc2)(c2ccccc2)c2ccccc2)CC(C)(C)N1[O] [MitoTEMPO]
[3]; MitoTempo 10 μM pretreated 12 hr
  mitochondrial reactive oxygen species increased by rotenone and Poly6, after antioxidant treatment: reduced again

## C=C(C)[C@H]1Cc2c(ccc3c2O[C@@H]2COc4cc(OC)c(OC)cc4[C@@H]2C3=O)O1 [rotenone]
[3]
  production of reactive oxygen species (mtROS) by mitochondrial stress: significantly increased

## GRLVF (Hepatitis B virus) [Poly5]
HBV [2]
  e antigen: reduced
  s antigen: reduced
HIV-1 [5]
  virus production (HIV-1 titers by GFP imaging and p24 ELISA): reduced

## GRLVFQ [Poly6, GRLVFQ]
HepG2 cells
  cytotoxic activity / cell viability, HepG2: did not exert significant cytotoxic activity
HepG2.2.15 cells
  cytotoxic activity / cell viability, HepG2.2.15: did not exert significant cytotoxic activity
HepG2-hNTCP-C4 cells
  cytotoxic activity / cell viability, HepG2-hNTCP-C4: did not exert significant cytotoxic activity
MT-4 cells
  cytotoxic activity against MT-4 cells (MTT): did not exert significant cytotoxic activity

## GRLVFQT (Hepatitis B virus) [Poly7]
HBV [2]
  e antigen: reduced
  s antigen: reduced
HIV-1 [5]
  virus production (HIV-1 titers by GFP imaging and p24 ELISA): reduced
